Results taken from paper PMC6240891, “Functional Analysis of Four Terpene Synthases in Rose-Scented Pelargonium Cultivars (Pelargonium × hybridum) and Evolution of Scent in the Pelargonium Genus” (Frontiers in Plant Science, 2018).

Tests used:
Experiment in all cases: GC-MS product analysis
Format in all cases: biochemical
Settings in all cases: 10 mM MgCl2, 1 mM MnCl2, pH 7.5, 30°C, 2 h
PhMYRS = target: T1, PhMYRS (Pelargonium graveolens, UniProt A0A2S1JKZ8)
T1 construct: gene MYRS; full-length (predicted plastid-targeted); E. coli Rosetta (DE3) pLysS
T1 sequence (A0A2S1JKZ8 1-606): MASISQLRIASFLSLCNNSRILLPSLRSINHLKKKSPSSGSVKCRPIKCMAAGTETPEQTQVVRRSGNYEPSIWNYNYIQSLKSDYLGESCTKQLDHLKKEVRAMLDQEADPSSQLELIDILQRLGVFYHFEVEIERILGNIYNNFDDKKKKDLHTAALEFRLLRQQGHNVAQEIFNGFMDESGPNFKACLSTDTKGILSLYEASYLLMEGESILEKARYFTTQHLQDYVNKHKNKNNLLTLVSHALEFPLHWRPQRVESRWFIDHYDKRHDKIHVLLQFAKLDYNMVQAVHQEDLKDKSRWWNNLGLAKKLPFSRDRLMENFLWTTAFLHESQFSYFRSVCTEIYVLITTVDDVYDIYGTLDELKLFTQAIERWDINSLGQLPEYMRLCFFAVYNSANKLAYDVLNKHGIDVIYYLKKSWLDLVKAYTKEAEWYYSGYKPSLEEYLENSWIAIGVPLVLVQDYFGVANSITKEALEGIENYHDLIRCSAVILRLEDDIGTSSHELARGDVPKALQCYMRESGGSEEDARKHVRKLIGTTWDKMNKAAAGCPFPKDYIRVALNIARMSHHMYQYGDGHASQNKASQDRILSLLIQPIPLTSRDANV

PhGES = target: T2, PhGES (Pelargonium graveolens, UniProt A0A2S1JKY6)
T2 construct: gene GES; full-length (plastid-targeted); E. coli Rosetta (DE3) pLysS; 'Grasse' form lacks the TAL triplet of 'Bourbon' and 'Egypt'
T2 sequence (A0A2S1JKY6 1-555): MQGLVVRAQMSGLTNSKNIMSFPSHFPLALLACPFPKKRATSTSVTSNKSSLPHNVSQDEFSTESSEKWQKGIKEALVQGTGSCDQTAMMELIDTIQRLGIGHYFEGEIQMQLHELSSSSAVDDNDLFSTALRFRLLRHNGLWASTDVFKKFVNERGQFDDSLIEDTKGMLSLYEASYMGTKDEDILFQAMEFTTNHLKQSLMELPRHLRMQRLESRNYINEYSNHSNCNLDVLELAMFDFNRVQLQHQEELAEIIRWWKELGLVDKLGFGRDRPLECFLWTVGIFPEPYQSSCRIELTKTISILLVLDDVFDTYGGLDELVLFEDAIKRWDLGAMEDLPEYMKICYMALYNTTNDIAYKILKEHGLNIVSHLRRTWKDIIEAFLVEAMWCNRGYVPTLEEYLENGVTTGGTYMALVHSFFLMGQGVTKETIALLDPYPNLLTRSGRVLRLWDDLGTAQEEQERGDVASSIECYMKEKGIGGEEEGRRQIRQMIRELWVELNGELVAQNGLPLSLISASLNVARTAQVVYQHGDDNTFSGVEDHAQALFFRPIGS

PhEDS = target: T3, PhEDS (Pelargonium graveolens, UniProt A0A2S1JKY7)
T3 construct: gene EUS; full-length; E. coli Rosetta (DE3) pLysS
T3 sequence (A0A2S1JKY7 1-567): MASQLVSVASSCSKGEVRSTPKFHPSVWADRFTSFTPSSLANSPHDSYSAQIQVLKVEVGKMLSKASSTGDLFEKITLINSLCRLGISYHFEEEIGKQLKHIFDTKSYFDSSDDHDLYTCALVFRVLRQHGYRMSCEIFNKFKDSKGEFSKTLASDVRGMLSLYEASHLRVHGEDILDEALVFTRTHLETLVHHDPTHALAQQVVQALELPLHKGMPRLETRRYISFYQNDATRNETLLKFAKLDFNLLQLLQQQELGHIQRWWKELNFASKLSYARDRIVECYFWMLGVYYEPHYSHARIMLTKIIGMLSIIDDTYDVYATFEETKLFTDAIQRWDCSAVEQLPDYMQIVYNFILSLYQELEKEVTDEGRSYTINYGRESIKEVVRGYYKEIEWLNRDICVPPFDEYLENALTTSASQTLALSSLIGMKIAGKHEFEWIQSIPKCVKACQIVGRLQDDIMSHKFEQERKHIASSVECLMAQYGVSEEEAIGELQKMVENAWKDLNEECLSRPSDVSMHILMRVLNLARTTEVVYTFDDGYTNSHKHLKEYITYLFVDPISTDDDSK

With `C=CC(=C)CCC=C(C)C` [β-myrcene] the GC-MS product analysis (PhMYRS; major product from GPP) was “PhMYRS (MF503884) used GPP to produce β-myrcene as major compound”.
`CC(C)=CCC/C(C)=C/COP(=O)(O)OP(=O)(O)O` [GPP] was tested, and the GC-MS product analysis (PhMYRS; 50 µM) was “PhMYRS (MF503884) used GPP to produce β-myrcene as major compound” and the GC-MS product analysis (PhGES; 50 µM) was “PhGES (MF503883) produced uniquely geraniol in presence of GPP as a substrate”.
In the case of `CC1=C2CC(C(C)(C)O)CCC2(C)CCC1` (stereo not drawn) [10-epi-γ-eudesmol], the GC-MS product analysis (PhEDS; major product from FPP) is reported as “PhEDS (MF503882) produced 10-epi-γ-eudesmol and α-eudesmol as major and minor products”.
In the case of `CC(C)=CCC/C(C)=C/CC/C(C)=C/COP(=O)(O)OP(=O)(O)O` [FPP], the GC-MS product analysis (PhEDS; 50 µM) is reported as “PhEDS (MF503882) produced 10-epi-γ-eudesmol and α-eudesmol as major and minor products, respectively, after incubation with FPP”.
In the case of `CC(C)=CCC/C(C)=C/CO` [geraniol], the GC-MS product analysis (PhGES; sole product from GPP) is reported as “PhGES (MF503883) produced uniquely geraniol in presence of GPP as a substrate”.
